Like-named read-outs stand apart in the source and are kept apart here.
B1: G-CSF: Hormone stimulating granulopoiesis; Peptide/Protein (protein, UniProt P09919 31-207, looked up)
Granulocyte …: TPLGPASSLPQSFLLKCLEQVRKIQGDGAALQEKLVSECATYKLCHPEELVLLGHSLGIPWAPLSSCPSQALQLAGCLSQLHSGLFLYQGLLQALEGISPELGPTLDTLQLDVADFATTIWQQMEELGMAPALQPTQGAMPAFASAFQRRAGGVLVASHLQSFLEVSYRVLRHLAQP

Tests used:
[1] = tested on: undifferentiated pluripotent stem cells (ESCs); experiment: Dual luminescence reporter test system, undifferentiated ESCs (readout not separated); assay type: cell-based, mouse; details: for effect on promoter activities in undifferentiated cells: non-cytotoxic concentrations
Description: Fig. 1 Synopsis of experimental protocols. The impact of compounds on neural promoter activity (FLuc, Firefly Luciferase under the control of the Tα1 promoter), general promoter activity (RLuc, Renilla Luciferase under the control of the EF1α promoter), and amount of DNA (PI, propidium iodide fluorescence in cell homogenates) was investigated in undifferentiated mouse embryonic pluripotent stem cells (ESCs) and on ESC-derived neurons. Arrows indicate the time of measurement of the three parameters. a Protocol for testing compounds effects on ESCs. CGR8-2Luc cells were plated on gelatin-coated 96-well plates in maintenance medium (BHK21 medium containing 10 % FCS, L-glutamine, NEAA, P/S, and LIF). Twenty-four hours later, cells were exposed to compounds for forty-eight hours. b Protocol for testing compounds on ESC-derived neurons. CGR8-2Luc cells were co-cultured with MS5 cells to induce neural differentiation in DMEM medium containing 15 % KO-serum, NEAA, β-mercaptoethanol, and P/S. On day 5, cells were detached and seeded on polyornithine-coated plates in DMEM medium containing N2 supplement, bFGF, and P/S; compound exposure was from day 6 to day 8
To test compounds on ESC-derived neurons, neuronal differentiation was carried out as previously described (Suter et al. [2009]; Xu et al. [2014]). Briefly, CGR8-2Luc cells were seeded on irradiated bone marrow-derived stromal MS5 cells and cultivated for 4 days in DMEM medium containing 15 % Knock-out™ Serum Replacement, non-essential amino acids, beta-mercaptoethanol, and penicillin/streptomycin. At day 5, cells were then re-plated (3 × 10^5 cells/cm^2) on polyornithine-coated 96-well plates in N2 medium containing DMEM, N2 supplement, penicillin/streptomycin, and 10 ng/ml basic human fibroblast growth factor (bFGF) (Invitrogen). […] To assess toxicity of compounds on undifferentiated pluripotent stem cells (ESCs), CGR8-2Luc cells were plated at 45,000 cells/cm^2 on 0.1 % gelatin-coated dishes in BHK21 medium, supplemented with 10 % fetal calf serum, L-glutamine, non-essential amino acids, penicillin/streptomycin, and leukemia inhibitory factor (LIF). After 24 h, compounds were added and incubated for 48 h, before luciferase expression and PI fluorescence were analyzed. In all experiments, methylmercury was used as a positive control at a concentration of 5 µM.
Luciferase activities were measured with a Dual-Luciferase™ Reporter system kit. CGR8-2Luc ES cells were lysed in 96-well plates according to the manufacturer’s instructions. Luminescence measurements were performed on a Fluostar Optima reader. Luminescence counts were expressed as percentage of promoter activity normalized by comparison with the control wells treated by DMSO. […] parameters were measured in homogenates of ESCs and in ESC-derived neurons: (1) FLuc, reflecting the activity of early neural promoter Tα1. FLuc increases during neuronal differentiation. Many neurotoxic compounds may affect FLuc expression, either through impact on neuronal differentiation, through changes of neuronal gene expression, or through killing of neurons.
After measurement of luciferase activity, DNA quantity was determined by PI assay, as previously described (Xu et al. [2014]). PI was added to cell homogenates after the luciferase test, at a final concentration of 50 µg/ml and incubated for 2 h. After incubation, fluorescence intensity was measured on a Flexstation 3 microplate reader (Excitation: 544 nm ± 15 nm; Emission: 620 nm ± 15 nm). Results are expressed as percentage of control. Propidium iodide (PI) measures total DNA content as an approximation of the cell number.

[2] = tested on: Tubulin α1 (Tα1) promoter; experiment: cells
Procedure, shortened: (§1)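 Mouse CGR8 ESCs carrying Tα1-firefly and EF1α-Renilla luciferase reporters, treated either undifferentiated (48 h exposure after 24 h plating) or as MS5-induced neurons (exposure day 6 to day 8). Dual-luciferase luminescence expressed as % promoter activity versus DMSO control wells; 5 µM methylmercury as positive control.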

[3] = tested on: Tubulin α1 (Tα1) promoter
Procedure, shortened: as §1

[4] = tested on: EF1α promoter
Procedure, shortened: as §1

[5] = tested on: CGR8-2Luc ESCs
Procedure, shortened: (§2)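 Mouse CGR8-2Luc ESCs in LIF-containing medium were exposed to compounds for 48 h; ESC-derived neurons (MS5 co-culture, replated day 5 in N2/bFGF medium) were exposed from day 6 to day 8. Read-outs: Tα1-FLuc, EF1α-RLuc and PI DNA content as % of control. LOAEL = lowest concentration giving a significant decrease versus baseline.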

[6] = tested on: ESC-derived neurons
Procedure, shortened: as §2

[7] = tested on: plasma protein; details: cited from earlier work
[8] = ESC-derived neurons, 48 h exposure
[9] = undifferentiated ESCs, 48 h exposure, lowest tested concentration with statistically significant decrease
[10] = undifferentiated ESCs, 48 h exposure
[11] = undifferentiated ESCs, 48 h exposure, PI assay (cytotoxicity)
[12] = ESC-derived neurons, 48 h exposure, PI assay (cytotoxicity)

| Molecule | LOAEL Neurons Tα1 [2, 8] | LOAEL ESC Tα1 [3, 9] | LOAEL Neurons EF1α [4, 8] | LOAEL ESC EF1α [4, 10] | LOAEL ESC DNA [5, 11] | LOAEL Neurons DNA [6, 12] | further results |
| --- | --- | --- | --- | --- | --- | --- | --- |
| C[C@]12CC[C@H](O)CC1=CC[C@@H]1[C@@H]2CC[C@]2(C)C(c3cccnc3)=CC[C@@H]12 [Abiraterone] | 1 µM | >2 µM | 2 µM | >2 µM | >2 µM | >2 µM | In vitro EC20 in ESC ([1]; in vitro toxicity data expressed as EC20): 2000 nM; fb,pl (plasma bound fraction) ([7]; fraction, extracted from the literature (geldanamycin value assumed)): 0.998; percentage of plasma protein binding ([7]; without relevant species differences, ref US FDA [2011]): 99.8% |
| O=C(/C=C/c1cccc(S(=O)(=O)Nc2ccccc2)c1)NO [Belinostat] | 0.0005 µM | 5 µM | 50 µM | 5 µM | 0.5 µM | 50 µM | effect on promoter activities in undifferentiated cells [1]: enhanced the activities of neuronal and/or general promoters |
| Nc1ccccc1NC(=O)c1ccc(CNC(=O)OCc2cccnc2)cc1 [Entinostat] | 0.5 µM | 50 µM | >50 µM | 5 µM | 5 µM | 50 µM | effect on promoter activities in undifferentiated cells [1]: enhanced the activities of neuronal and/or general promoters; effect on general promoter activity in neurons [4]: enhanced |
| COc1cc2ncnc(Nc3ccc(F)c(Cl)c3)c2cc1OCCCN1CCOCC1 [Gefitinib] | 50 µM | 50 µM | 50 µM | 50 µM | 50 µM | 50 µM |  |
| [Br][Hg][Br] [Mercury bromide] | 10 µM | 5 µM | >10 µM | 5 µM | 5 µM | >10 µM | cytotoxicity on ESCs [5]: highly cytotoxic |
| COCC(=O)O [Methoxyacetic acid] | 50 µM | >50 µM | >50 µM | >50 µM | >50 µM | >50 µM | inhibition at 50 µM ([2]; Mus musculus, Neuron, read-out: inhibition of neuronal promoter activity): ~40%; effect on neural promoter activity in ESCs [3]: increase |
| [CH3][Hg][Cl] [Methylmercury] | 0.05 µM | 0.5 µM | 5 µM | 0.5 µM | 0.5 µM | 0.5 µM |  |
| COC(=O)c1ccc2c(c1)NC(=O)/C2=C(\Nc1ccc(N(C)C(=O)CN2CCN(C)CC2)cc1)c1ccccc1 [Nintedanib] | 0.05 µM | 0.5 µM | 5 µM | 5 µM | 5 µM | 5 µM |  |
| COc1ccc2[nH]c([S+]([O-])Cc3ncc(C)c(OC)c3C)nc2c1 (centres unmarked) [Omeprazole] | >50 µM | >50 µM | >50 µM | >50 µM | >50 µM | >50 µM |  |
| Brc1ccc(Oc2cc(Br)c(Br)cc2Br)c(Br)c1 [PBDE-99] | >50 µM | 50 µM | 5 µM | >50 µM | >50 µM | 5 µM | effect on cell number in neurons [6]: moderate cell number decrease |
| Cc1[nH]c2ccccc2c1CCNCc1ccc(/C=C/C(=O)NO)cc1 [Panobinostat] | 0.0005 µM | 0.05 µM | 50 µM | 0.05 µM | 0.05 µM | 0.05 µM | effect on neural promoter activity in neurons [2]: inhibited at subnanomolar concentrations |
| CC(C)NCC(O)COc1cccc2ccccc12 (centres unmarked) [Propranolol] | 50 µM | 50 µM | >50 µM | 50 µM | >50 µM | 50 µM |  |
| O=C(NC[C@H]1CN(c2ccc(N3CCOCC3=O)cc2)C(=O)O1)c1ccc(Cl)s1 [Rivaroxaban] | >10 µM | >10 µM | >10 µM | >10 µM | >10 µM | >10 µM |  |
| C[CH2][Hg][S]c1ccccc1C(=O)[O-].[Na+] [Thimerosal] |  |  |  |  |  |  | LOAEL Neurons Tα1 [2]: 0.5 µM; LOAEL ESC Tα1 [3]: 0.5 µM; LOAEL ESC EF1α [4]: 0.5 µM; LOAEL Neurons EF1α [4]: 0.5 µM; LOAEL ESC DNA [5]: 0.5 µM; LOAEL Neurons DNA [6]: 0.5 µM |
| O=c1[nH]c(=O)c2[nH]c(=O)[nH]c2[nH]1 [Uric acid] | >50 µM | >50 µM |  | >50 µM | >50 µM | >50 µM | LOAEL Neurons EF1α ([4]; mouse, 48 h): >50 µM |
| CCCC(CCC)C(=O)O [Valproic acid] | 50 µM | 5000 µM | 5000 µM | 5000 µM | 5000 µM | 5000 µM | effect on promoter activities in undifferentiated cells [1]: enhanced the activities of neuronal and/or general promoters |
| Erythropoietin: EpoR agonist controlling erythropoiesis and neurogenesis; Peptide/Protein | >0.238 µM | >0.238 µM | >0.238 µM | >0.238 µM |  |  | effect on general promoter activity in neurons [4]: selectively increased; LOAEL ESC DNA [5]: >0.238 µM; LOAEL Neurons DNA [6]: >0.238 µM |
| Oxytocin | >0.1 µM | >0.1 µM | >0.1 µM | >0.1 µM | >0.1 µM | >0.1 µM |  |
| B1 | >0.00266 µM | >0.00266 µM | >0.00266 µM | >0.00266 µM |  |  | effect on general promoter activity in neurons [4]: selectively increased; LOAEL ESC DNA [5]: >0.00266 µM; LOAEL Neurons DNA [6]: >0.00266 µM |

— publication PMC5225183, “Fingerprinting of neurotoxic compounds using a mouse embryonic stem cell dual luminescence reporter assay” (Archives of Toxicology, 2016)
